Measured values reported in patent publication US6180385A (priority 1996, dated 2001).

Biological target: Lb proteinase (Foot-and-mouth disease virus serotype O, UniProt P03305)
Sequence (P03305 29-201 limits assumed): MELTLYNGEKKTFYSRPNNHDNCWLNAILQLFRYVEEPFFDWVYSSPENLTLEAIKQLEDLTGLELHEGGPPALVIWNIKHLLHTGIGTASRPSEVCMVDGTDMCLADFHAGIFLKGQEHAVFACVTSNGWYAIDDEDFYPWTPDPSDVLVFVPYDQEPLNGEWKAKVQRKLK

AKVQRKLKGAGQSSPA [LVP4-1]
FMDV Lb cleavage site on the peptide (* indicates cleavage site): K*G | cleavage of peptide in the absence of SDS (controls): complete cleavage | peptide cleaved by Lb (qualitative): cleaved | cleavage of peptide by Lb after 4 min (lb proteinase, 4 min, 100 µM, pH 8): more than 80% | cleavage of peptide by Lb after 8 min (lb proteinase, 8 min, 100 µM, pH 8): about 90%
